Legend:
[1] = tested on: Herpes Simplex Virus 1 (HSV1); assay: HSV1 infection of organoid-derived conjunctival ALI cultures, viral titers by qPCR; type: cell-based; settings: 10 μM Acyclovir in bottom compartment after virus incubation; 17-day-old human conjunctival ALI cultures; followed 96 hours
Protocol: To model HSV1 infection, we exposed the apical surface of fully differentiated 17-day-old ALI cultures for 3 hours to an HSV1 strain whose capsid protein VP26 was tagged with tdTomato (hereafter called HSV1-tdTomato, FIG. 6A). HSV1 titrer increased by 5 logs over the course of 96 hours after initial incubation with HSV1, implying a productive infection of the conjunctival ALI culture with HSV1 (FIG. 6B). In addition, we observed that the tdTomato signal increased over time in HSV1-infected ALI cultures when imaged using an Auto-EVOS microscope (Thermo Fisher Scientific) (Data not shown). […] Acyclovir, an inhibitor of HSV1 DNA polymerase, is commonly given to patients with HSV1-induced conjunctivitis. Indeed, the infection was blocked when ALI cultures were treated with 10 μM Acyclovir (FIG. 6A-B). Thus, organoid-derived ALI cultures support HSV1 infection and represent a human ocular surface model for HSV1 infection.
Human organoids (5-7 days after split) were harvested, trypsinized to single cells using 0.25% Trypsin/EDTA (ThermoFisher Scientific) for 5 minutes and 100,000 cells were seeded in 100 μL human expansion medium on 6.5 mm-wide transwells (Corning or Greiner). […]
Herpes Simplex Virus 1 containing endogenously tagged […] capsid protein with tdTomato (HSV1-tdTomato) was used. […] Viral titer quantification was performed as indicated below. […]

[2] = tested on: human Adenovirus 8 (hAdV8); assay: hAdV8 infection of organoid-derived conjunctival ALI cultures, viral titers by qPCR and cytopathic effects; type: cell-based; settings: 17-day-old conjunctival ALI cultures, up to 96 hours; for reversal of adenoviral (hAdV8) infection: 10 μM Acyclovir, 60 μM Cidofovir or 20 μM Nelfinavir
Excerpt: Adenoviruses are the leading cause of viral conjunctivitis. Yet, to date, no medication is available, partly because there is no model system for this type of ocular infection. An hAdV8 strain, isolated from a patient was provided by Dr. Nobuyo Yawata and Dr. Makoto Yawata (Kyushu University, Japan and NUS, Singapore) (see Yawata, N., and Yawata, M. 2022. Assessing the Response of Human NK Cell Subsets to Infection by Clinically Isolated Virus Strains. Methods Mol Biol 2463, 205-220. https://doi.org/10.1007/978-1-0716-2160-8_15). hAdV8 was added to 17-day-old conjunctival ALI cultures (FIG. 6E). Conjunctival ALI cultures were readily infected by hAdV8, as confirmed by the viral titre measured by qPCR (not shown). CPEs were visible starting from 48 hours after infection: infected cells darkened and were extruded from the epithelium. We then tested several antiviral drugs experimentally applied for adenoviral conjunctivitis (Acyclovir, Cidofovir and Nelfinavir) to test their efficacy in blocking the infection.
Human organoids (5-7 days after split) were harvested, trypsinized to single cells using 0.25% Trypsin/EDTA (ThermoFisher Scientific) for 5 minutes and 100,000 cells were seeded in 100 μL human expansion medium on 6.5 mm-wide transwells (Corning or Greiner). Human expansion medium was added to the lower compartment. After 3 to 4 days, when cells had reached confluency, medium from the upper compartment was removed to lift the cultures to air-liquid interface (ALI). The ALI cultures were maintained up to 22 days. The medium in the bottom compartment was changed every 3-4 days.
An hAdV8 strain isolated from a patient was used. Similar to HSV1 infection, hAdV8 at MOI 10 was added to the ALI culture in 50 μL PBS for 3 hours, before being washed away. Every 24 hours, the shed viruses were collected in 100 μL PBS and stored until further processing. If indicated, 10 μM Acyclovir (PHR1254, Sigma-Aldrich), 60 μM Cidofovir (C5874, Sigma-Aldrich) or 20 μM Nelfinavir (PZ0013, Sigma-Aldrich) was added to the bottom compartment after incubating with the virus. hAdV8-infected ALI cultures were kept for up to 4 days and, if required, fixed.
At the time of processing of the pellets for organoids and supernatants for ALI cultures, DNA was extracted using Zymogen Quick-DNA Microprep kit (ZY-D3020, Zymogen). DNA was systematically resuspended in 15 μL nuclease-free water (QIAGEN). Viral DNA was then quantified by qPCR as follow: 5 μL of the DNA extract was mixed together with 5 μL of SYBR green (Bio-Rad) containing HSV1 detection primers (HSV1-F: […] (SEQ ID NO: 13) and HSV1-R: […] (SEQ ID NO: 14)) or hAdV8 detection primers (hAdV8-F: […] (SEQ ID NO: 15) and hAdV8-R: […] (SEQ ID NO: 16). The SYBR green was mixed with 10 μM primer mix at a ratio 10:1. Technical duplicates were assessed by qPCR. The following program was used for viral DNA amplification: 95° C. for 2 minutes, followed by 40 cycles of 98° C. for 15 seconds, 60° C. for 15 seconds and 72° C. for 15 seconds. For quantifying the viral DNA content in ALI supernatants, we amplified 179 bp of HSV1-tdTomato genome using HSV1-F and HSV1-R and 1004 bp of the hAdV8 genome using hAdV8-F and hAdV8-R. We cloned both in a pJet vector (Thermo Fisher Scientific) and used it to make a standard curve ranging from 2.104 to 2.109 copies of viral genome according to Addgene instructions (https://www.addgene.org/protocols/aav-titration-qpcr-using-sybr-green-technology/). […]

SMILES	HSV1 infection (HSV1 titers detected by qPCR) [1]	reversal of adenoviral (hAdV8) infection [2]	cytopathic effects (CPEs) after hAdV8 infection ([2]; 60 μM Cidofovir)	hAdV8 viral titre (qPCR) ([2]; 60 μM Cidofovir)
Nc1nc2c(ncn2COCCO)c(=O)[nH]1 [Acyclovir]	blocked	only Cidofovir could reverse adenoviral infection	–	–
Nc1ccn(C[C@@H](CO)OCP(=O)(O)O)c(=O)n1 [Cidofovir]	–	could reverse adenoviral infection	absence	decrease
Cc1c(O)cccc1C(=O)N[C@@H](CSc1ccccc1)[C@H](O)CN1C[C@H]2CCCC[C@H]2C[C@H]1C(=O)NC(C)(C)C [Nelfinavir]	–	only Cidofovir could reverse adenoviral infection	–	–

From patent publication US20260265687A1, “OCULAR ORGANOIDS” (KONINKLIJKE NEDERLANDSE AKADEMIE VAN WETENSCHAPPEN, priority 2023, published 2026)
